Assay results from patent US7262268B2, “Lipopeptide stereoisomers, methods for preparing same, and useful intermediates” (Cubist Pharmaceuticals, Inc., priority 2001, dated 2007).
Converted amounts (≈) assume the structure as drawn. Where two headings read alike, the source gives them in different places.

Key:
[1] = test system: E. faecalis; type: cell-based
Description: (§1) Compounds according to Formula II were tested for antimicrobial activity against a panel of organisms according to standard procedures described by the National Committee for Clinical Laboratory Standards (NCCLS document M7-A5, Vol. 20, No. 2, 2000) except that all testing was performed at 37° C. Compounds were dissolved in 100% dimethyl sulfoxide and were diluted to the final reaction concentration (0.1 μg/mL-100 μg/mL) in microbial growth media. In all cases the final concentration of dimethyl sulfoxide incubated with cells is less than or equal to 1%. For minimum inhibitory concentration (MIC) calculations, 2-fold dilutions of compounds were added to wells of a microtiter plate containing 5×10^4 bacteria cells in a final volume of 100 μL of media (Mueller-Hinton Broth supplemented with 50 mg/L Ca^2+). The optical densities (OD) of the bacterial cells, which measures bacterial cell growth and proliferation, were measured using a commercial plate reader. The MIC value is defined as the lowest compound concentration inhibiting growth of the test organism.

[2] = test system: S. aureus; type: cell-based
Description: as §1

[3] = Mueller-Hinton Broth supplemented with 50 mg/L Ca2+, 37° C., 2-fold dilutions

Structure (SMILES)	MIC (μg/ml) E. faecalis [1, 3]	MIC (μg/ml) S. aureus [2, 3]	MIC (μg/ml) E. faecalis [1]	MIC (μg/ml) S. aureus [2]
CCCCCCCCCC(=O)N[C@@H](Cc1c[nH]c2ccccc12)C(=O)N[C@@H](CC(N)=O)C(=O)N[C@@H](CC(=O)O)C(=O)N[C@@H]1C(=O)NCC(=O)N[C@@H](CCCN)C(=O)N[C@@H](CC(=O)O)C(=O)N[C@H](C)C(=O)N[C@@H](CC(=O)O)C(=O)NCC(=O)N[C@H](CO)C(=O)N[C@@H](C(C)CC(=O)O)C(=O)N[C@@H](CC(=O)c2ccccc2N)C(=O)O[C@@H]1C (stereo partly shown) [Compound HH]	100 µg/mL (≈ 61.7 µM)	6.25 µg/mL (≈ 3.86 µM)		
CCCCCCCCCC(=O)N[C@@H](Cc1c[nH]c2ccccc12)C(=O)N[C@H](CC(N)=O)C(=O)N[C@@H](CC(=O)O)C(=O)N[C@@H]1C(=O)NCC(=O)N[C@@H](CCCN)C(=O)N[C@@H](CC(=O)O)C(=O)N[C@H](C)C(=O)N[C@@H](CC(=O)O)C(=O)NCC(=O)N[C@H](CO)C(=O)N[C@@H]([C@H](C)CC(=O)O)C(=O)N[C@@H](CC(=O)c2ccccc2N)C(=O)O[C@@H]1C [Daptomycin]			6.26 µg/mL (≈ 3.86 µM)	0.78 µg/mL (≈ 0.481 µM)
